Here are results for 13 compounds from patent US8299048B2, “Hexahydrocyclopentyl[f]indazole sulfonamides and derivatives thereof as selective glucocorticoid receptor modulators” (Merck Sharp & Dohme Corp., priority 2008, dated 2012).

Each structure is given as a SMILES string. Bounds are passed on as bounds.

In assay [1] the target is T1, human GR (Homo sapiens, UniProt P04150).
T1 sequence (P04150 1-777): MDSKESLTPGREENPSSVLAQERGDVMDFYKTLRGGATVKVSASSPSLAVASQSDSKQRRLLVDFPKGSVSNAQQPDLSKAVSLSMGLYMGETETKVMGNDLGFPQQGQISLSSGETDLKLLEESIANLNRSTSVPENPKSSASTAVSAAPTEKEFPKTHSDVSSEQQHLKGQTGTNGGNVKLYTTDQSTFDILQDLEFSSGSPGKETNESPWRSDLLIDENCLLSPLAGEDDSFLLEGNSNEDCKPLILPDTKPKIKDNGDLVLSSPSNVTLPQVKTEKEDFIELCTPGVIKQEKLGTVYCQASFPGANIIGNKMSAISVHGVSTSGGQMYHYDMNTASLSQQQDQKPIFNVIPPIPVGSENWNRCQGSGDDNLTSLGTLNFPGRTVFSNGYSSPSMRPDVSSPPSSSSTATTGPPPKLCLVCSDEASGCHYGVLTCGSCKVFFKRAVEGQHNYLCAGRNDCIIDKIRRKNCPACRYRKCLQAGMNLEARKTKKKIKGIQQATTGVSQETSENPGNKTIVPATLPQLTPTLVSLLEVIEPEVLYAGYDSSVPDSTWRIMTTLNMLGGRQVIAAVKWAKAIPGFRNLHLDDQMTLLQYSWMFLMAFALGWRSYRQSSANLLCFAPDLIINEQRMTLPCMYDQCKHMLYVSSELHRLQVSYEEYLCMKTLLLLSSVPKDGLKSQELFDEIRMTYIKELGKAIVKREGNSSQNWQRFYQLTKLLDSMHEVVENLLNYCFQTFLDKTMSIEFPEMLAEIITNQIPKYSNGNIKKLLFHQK
The experiment in a line: Transrepression Assay (GITAR), TNFα-β-lactamase reporter in U937 cells. It counts as cell-based. Further details: U937 cells contain an endogenous glucocorticoid receptor (GR); endogenous in cells; host or cells: U937 cells stably transfected with the TNF-alpha promoter/beta-lactamase reporter. Particulars: for GITAR > GRAMM % SEP: GITAR Emax minus GRAMMER Emax; for EC50: inflection point, read-out: Transrepression U937 Cells GITAR IP. The gist of the method:
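Read-out: CCF2-AM β-lactamase signal after 70–90 min loading at room temperature. U937 TNF-α-promoter reporter cells (endogenous GR), compound 30–45 min at 37 °C, then PMA 5 ng/ml + LPS 100 ng/ml final, ~18 hr. Normalised to 100 nM dexamethasone = 100%.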

Assay [2] addresses T1, human GR. The experiment in a line: Trans-Activation Modulation of Glucocorticoid Receptor (GRAMMER), MMTV-LUC reporter, agonist mode. Further details: endogenous in cells. The class given is cell-based. Particulars: for EC50: inflection point, read-out: Transactivation A549 Cells GRAMMER IP; for Emax: A549, A549 cells, read-out: Transactivation A549 Cells GRAMMER Emax. The method, boiled down:
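Readout is luciferase from a modified MMTV LTR promoter after 24 h compound exposure alongside 10 nM dexamethasone (100% activity reference), DMSO ≤1%.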

Where [3] appears, read: U-937, U937 cells, maximum activity, read-out: Transrepression U937 Cells GITAR Emax.
Where [4] appears, read: U-937, activity repressed by 100 nM dexamethasone alone set as 100%, read-out: maximal activity in the transrepression (GITAR) assay.

Consider `C[C@]12Cc3cnn(-c4ccc(F)cc4)c3C=C1CC[C@@H]2CN(CCc1ccccn1)S(=O)(=O)Cc1cccnc1` [Example 1, N-{[(4αR,5S)-1-(4-Fluorophenyl)-4α-methyl-1,4,4α,5,6,7-hexahydrocyclopenta[f]indazol-5-yl]methyl}-1-pyridin-3-yl-N-(2-pyridin-2-ylethyl)methanesulfonamide], for which, in assay [1], the “GITAR > GRAMM % SEP” value worked out at 41.9%. For the same compound, the EC50 in assay [1] (U937 cells) came out at 0.407 µM; in assay [2] (A549 cells), 0.351 µM. Moreover, in assay [1] (U937 cells, maximum activity), the “Transrepression U937 Cells GITAR Emax” value is listed as 73.5%. The “Transactivation A549 Cells GRAMMER Emax” value in assay [2] (A549 cells, maximum activity) is 31.6%.
Regarding `C[C@]12Cc3cnn(-c4ccc(F)cc4)c3C=C1CC[C@@H]2CN(CC1CC1)S(=O)(=O)c1ccccc1F` [Example 2, N-(cyclopropylmethyl)-2-fluoro-N-{[(4αR,5S)-1-(4-fluorophenyl)-4α-methyl-1,4,4α,5,6,7-hexahydrocyclopenta[f]indazol-5-yl]methyl}benzenesulfonamide], the figures for the EC50 in assay [1] (U937 cells) and in assay [2] (A549 cells) were 0.26 µM and 0.218 µM, respectively. The Emax was 73.3% in assay [1] (setting [3]), > 5% in assay [1] (setting [4]) and 50.5% in assay [2] (maximum activity).
The matching figures for `C=CCN(C[C@H]1CCC2=Cc3c(cnn3-c3ccc(F)cc3)C[C@@]21C)S(=O)(=O)c1ccccc1F` [Example 3, N-allyl-2-fluoro-N-{[(4αR,5S)-1-(4-fluorophenyl)-4α-methyl-1,4,4α,5,6,7-hexahydrocyclopenta[f]indazol-5-yl]methyl}benzenesulfonamide]: 0.407 µM, 0.368 µM, 65.1%, > 5% and 39.3%.
For `C[C@]12Cc3cnn(-c4ccc(F)cc4)c3C=C1CC[C@@H]2CN(CC1CC1)S(=O)(=O)c1ccccc1C(F)(F)F` [Example 4, N-(cyclopropylmethyl)-N-{[(4αR,5S)-1-(4-fluorophenyl)-4α-methyl-1,4,4α,5,6,7-hexahydrocyclopenta[f]indazol-5-yl]methyl}-2-(trifluoromethyl)benzenesulfonamide], the “GITAR > GRAMM % SEP” value in assay [1] came to 36.2%. The figures for the EC50 in assay [1] (U937 cells) and in assay [2] (A549 cells) were 0.256 µM and 0.294 µM, respectively. In addition, the Emax in assay [1] (setting [3]) is 53.1%; in assay [1] (setting [4]), > 5%; in assay [2] (maximum activity), 16.9%.
Take `C[C@]12Cc3cnn(-c4ccc(F)cc4)c3C=C1CC[C@@H]2CN(CCO)S(=O)(=O)Cc1cccc(C(F)(F)F)c1` [Example 63, N-{[(4αR,5S)-1-(4-fluorophenyl)-4α-methyl-1,4,4α,5,6,7-hexahydrocyclopenta[f]indazol-5-yl]methyl}-N-(2-hydroxyethyl)-1-[3-(trifluoromethyl)phenyl]methanesulfonamide]: in assay [1], the “GITAR > GRAMM % SEP” value turned out to be 9.9%. Moreover, the values for the EC50 in assay [1] (U937 cells) and in assay [2] (A549 cells) were 0.404 µM and 1.41 µM, respectively. In addition, the values for the Emax in assay [1] (setting [3]), in assay [1] (setting [4]) and in assay [2] (maximum activity) were 12%, > 5% and 2.1%, respectively.
Regarding `Cc1ccc(S(=O)(=O)N(CCO)C[C@H]2CCC3=Cc4c(cnn4-c4ccc(F)cc4)C[C@@]32C)s1` [Example 64, N-{[(4αR,5S)-1-(4-fluorophenyl)-4α-methyl-1,4,4α,5,6,7-hexahydrocyclopenta[f]indazol-5-yl]methyl}-N-(2-hydroxyethyl)-5-methylthiophene-2-sulfonamide], the “GITAR > GRAMM % SEP” value in assay [1] was found to be 21.1%. Moreover, the values for the EC50 in assay [1] (U937 cells) and in assay [2] (A549 cells) were 0.731 µM and 0.622 µM, respectively. In addition, the Emax in assay [1] (setting [3]) was 29%; in assay [1] (setting [4]), > 5%; in assay [2] (maximum activity), 7.9%.
In the case of `Cn1cc(S(=O)(=O)N(CCO)C[C@H]2CCC3=Cc4c(cnn4-c4ccc(F)cc4)C[C@@]32C)c(C(F)(F)F)n1` [Example 65, N-{[(4αR,5S)-1-(4-fluorophenyl)-4α-methyl-1,4,4α,5,6,7-hexahydrocyclopenta[f]indazol-5-yl]methyl}-N-(2-hydroxyethyl)-1-methyl-3-(trifluoromethyl)-1H-pyrazole-4-sulfonamide], in assay [1], the “GITAR > GRAMM % SEP” value is listed as 41.3%. For the same compound, the EC50 in assay [1] (U937 cells) was determined as 0.894 µM; in assay [2] (A549 cells), 1.08 µM. In addition, the Emax in assay [1] (setting [3]) is 61%; in assay [1] (setting [4]), > 5%; in assay [2] (maximum activity), 19.6%.
With `Cc1cc(S(=O)(=O)N(CCO)C[C@H]2CCC3=Cc4c(cnn4-c4ccc(F)cc4)C[C@@]32C)c(C)o1` [Example 66, N-{[(4αR,5S)-1-(4-fluorophenyl)-4α-methyl-1,4,4α,5,6,7-hexahydrocyclopenta[f]indazol-5-yl]methyl}-N-(2-hydroxyethyl)-2,5-dimethylfuran-3-sulfonamide], the “GITAR > GRAMM % SEP” value in assay [1] is 19.2%. For the same compound, the EC50 in assay [1] (U937 cells) is 0.929 µM; in assay [2] (A549 cells), 1.18 µM. Besides, the results for the Emax in assay [1] (setting [3]), in assay [1] (setting [4]) and in assay [2] (maximum activity) were 24.5%, > 5% and 5.3%, respectively.
Consider `Cn1nc(C(F)(F)F)cc1-c1ccc(S(=O)(=O)N(CCO)C[C@H]2CCC3=Cc4c(cnn4-c4ccc(F)cc4)C[C@@]32C)s1` [Example 67, N-{[(4αR,5S)-1-(4-fluorophenyl)-4α-methyl-1,4,4α,5,6,7-hexahydrocyclopenta[f]indazol-5-yl]methyl}-N-(2-hydroxyethyl)-5-[1-methyl-3-(trifluoromethyl)-1H-pyrazole-5-yl]thiophene-2-sulfonamide], for which, in assay [1], the “GITAR > GRAMM % SEP” value came to 22.8%. Also, the values for the EC50 in assay [1] (U937 cells) and in assay [2] (A549 cells) were 2.06 µM and 0.45 µM, respectively. In addition, the values for the Emax in assay [1] (setting [3]), in assay [1] (setting [4]) and in assay [2] (maximum activity) were 29.3%, > 5% and 6.5%, respectively.
In the case of `C[C@]12Cc3cnn(-c4ccc(F)cc4)c3C=C1CC[C@@H]2CN(CCO)S(=O)(=O)c1cccc(C#N)c1` [Example 68, 3-cyano-N-{[(4αR,5S)-1-(4-fluorophenyl)-4α-methyl-1,4,4α,5,6,7-hexahydrocyclopenta[f]indazol-5-yl]methyl}-N-(2-hydroxyethyl)benezenesulfonamide], the “GITAR > GRAMM % SEP” value in assay [1] stood at 22.9%. Moreover, the EC50 in assay [1] (U937 cells) worked out at 0.757 µM; in assay [2] (A549 cells) it was 0.951 µM. Also, the Emax in assay [1] (setting [3]) is 32.9%; in assay [1] (setting [4]), > 5%; in assay [2] (maximum activity), 10%.
Turning to `C[C@]12Cc3cnn(-c4ccc(F)cc4)c3C=C1CC[C@@H]2CN(CCO)S(=O)(=O)c1ccc(Oc2cccc(Cl)c2C#N)cc1` [Example 69, 4-(3-chloro-2-cyanophenoxy)-N-{[(4αR,5S)-1-(4-fluorophenyl)-4α-methyl-1,4,4α,5,6,7-hexahydrocyclopenta[f]indazol-5-yl]methyl}-N-(2-hydroxyethyl)benzenesulfonamide], in assay [1], the “GITAR > GRAMM % SEP” value was 22.2%. The EC50 in assay [1] (U937 cells) worked out at 2.54 µM; in assay [2] (A549 cells) it was 0.852 µM. For the same compound, the Emax in assay [1] (setting [3]) is 34.8%; in assay [1] (setting [4]), > 5%; in assay [2] (maximum activity), 12.6%.
Consider `C[C@]12Cc3cnn(-c4ccc(F)cc4)c3C=C1CC[C@@H]2CN(CCO)S(=O)(=O)c1ccccc1C(F)(F)F` [Example 70, N-{[(4αR,5S)-1-(4-fluorophenyl)-4α-methyl-1,4,4α,5,6,7-hexahydrocyclopenta[f]indazol-5-yl]methyl}-N-(2-hydroxyethyl)-2-(trifluoromethyl)benzenesulfonamide], for which the “GITAR > GRAMM % SEP” value in assay [1] is on record as 15.1%. The EC50 worked out at 1.01 µM in assay [1] (U937 cells) and 0.564 µM in assay [2] (A549 cells). Also, the Emax is 40.8% in assay [1] (setting [3]), > 5% in assay [1] (setting [4]) and 25.8% in assay [2] (maximum activity).
For `Cc1noc(C)c1S(=O)(=O)N(CCO)C[C@H]1CCC2=Cc3c(cnn3-c3ccc(F)cc3)C[C@@]21C` [Example 71, N-{[(4αR,5S)-1-(4-fluorophenyl)-4α-methyl-1,4,4α,5,6,7-hexahydrocyclopenta[f]indazol-5-yl]methyl}-N-(2-hydroxyethyl)-3,5-dimethylisoxazole-4-sulfonamide], the “GITAR > GRAMM % SEP” value in assay [1] is on record as 19.2%. Also, the EC50 came to 0.302 µM in assay [1] (U937 cells) and 0.257 µM in assay [2] (A549 cells). The Emax in assay [1] (setting [3]) is 82.3%; in assay [1] (setting [4]), > 5%; in assay [2] (maximum activity) it was 63.1%.
